Source: US7932290B2, “Method for the treatment of metabolic disorders” (Wellstat Biologics Corporation, priority 2003, dated 2011)

Columns and labels:
db/db mice = experiment: Antidiabetic effects in db/db mice, Example B (2 weeks daily oral dosing); format: in vivo, mouse; conditions: for Glucose (% of Control) / Glucose: 2 weeks; for Glucose: nonfasting; for Free Fatty Acids ± SEM / Triglycerides ± SEM: serum, 2 weeks daily oral, dose not given in Table 17 (see Table 16)
Description: db/db mice have a defect in leptin signaling, leading to hyperphagia, obesity and diabetes. Moreover, unlike ob/ob mice on a C57BL/6J background, db/db mice on a C57BL/KS background undergo failure of their insulin-producing pancreatic islet cells, resulting in progression from hyperinsulinemia (associated with peripheral insulin resistance) to hypoinsulinemic diabetes.
Male obese (db/db homozygote) C57BL/Ksola mice approximately 8 weeks of age, were obtained from Jackson Labs (Bar Harbor, Me.) and randomly assigned into groups of 5-7 animals such that the body weights (50-55 g) and serum glucose levels (≧300 mg/dl in fed state) were similar between groups; male lean (db/+heterozygote) mice served as cohort controls. A minimum of 7 days was allowed for adaptation after arrival. All animals were maintained under controlled temperature (23° C.), relative humidity (50±5%) and light (7:00-19:00), and allowed free access to standard chow (Formulab Diet 5008, Quality Lab Products, Elkridge, Md.) and water.
Treatment cohorts were given daily oral doses of Vehicle (1% hydroxypropylmethylcellulose), Compounds BI, CE, BT, BV, […] or Fenofibrate for 2 weeks. At the end of the treatment period 100 μl of venous blood was withdrawn in a heparinized capillary tube from the retro-orbital sinus of db/db mice for serum chemistry analysis.

[1] = tested on: male ob/ob mouse model of Type II diabetes; experiment: Antidiabetic effects in ob/ob mice (serum chemistry after 2 weeks daily oral dosing); format: in vivo; set-up: key to Glucose ± SEM: serum glucose in mg/dl; Triglycerides ± SEM / Free Fatty Acids ± SEM: unit not given here; conditions: for Free Fatty Acids ± SEM / Triglycerides ± SEM / Glucose ± SEM: 60 mg/kg; for Glucose / Glucose (% of Control): 60 mg/kg daily oral, 2 weeks; for Glucose ± SEM: Table 15
Method: Obese (ob/ob) mice have a defect in the protein leptin, a regulator of appetite and fuel metabolism, leading to hyperphagia, obesity and diabetes.
Male obese (ob/ob homozygote) C57BL/6J mice, approximately 8 weeks of age, were obtained from Jackson Labs (Bar Harbor, Me.) and randomly assigned into groups of 5 animals each such that the body weights (45-50 g) and serum glucose levels (≧300 mg/dl in fed state) were similar between groups. A minimum of 7 days was allowed for adaptation after arrival. All animals were maintained under controlled temperature (23° C.), relative humidity (50±5%) and light (7:00-19:00), and allowed free access to standard chow (Formulab Diet 5020 Quality Lab Products, Elkridge, Md.) and water.
Treatment cohorts were given daily oral doses of vehicle (1% hydroxypropyl-methylcellulose), Compounds BI, CF, CA, CB, CC, or CD for 2 weeks. At the end of the treatment period 100 μl of venous blood was withdrawn in a heparinized capillary tube from the retro-orbital sinus of ob/ob mice for serum chemistry analysis.

[2] = tested on: Human PPARγ LBD fusion protein; experiment: Transcription activation potential, GAL4 luciferase reporter in C3A cells; format: cell-based
Method: Cells were seeded in 24 well plates the day prior to transfection at 5×10^4−2×10^5 cells/well, depending upon cell type. Cells were transfected using Lipofectamine 2000 reagent from Invitrogen. A total of 0.8 μg DNA/well was added to 50 μL of Optimem Reduced Serum media (serum free; Gibco). Lipofectamine 2000 was added (2.5 μL/well) to another tube containing 50 μL of Optimem media. Plasmid DNA was added at a ratio of 4:3 (reporter:activator); where appropriate, salmon sperm DNA was substituted for activator expressing plasmid. […] DNA constructs containing the mouse PPARα or PPARγ LBD fused to the GAL4 DNA binding domain were also used. The two solutions were incubated at room temperature for 5 min, and then combined. The combined solution was incubated at room temperature for approximately 30 min. Cells were washed once with PBS, and 100 μL of transfection mix added to each well. Plates were incubated at 37° C. in a 5% CO2 incubator for 4.5 hr, followed by aspiration of the transfection mix, with plates refed using EMEM complete media (supplemented with 10% FBS, 1× Glutamine). 24 hr post-transfection, plates were treated with the appropriate compounds in EMEM complete media, followed by washing once with PBS and addition of 100 μL 1× reporter lysis buffer/well (Promega) 24 hr after treatment. Plates went through one freeze/thaw cycle prior to analysis. Approximately 10 μL of lysate was added to 100 μL of firefly luciferase substrate, mixed by pipetting, and analyzed on a luminometer for 10 s using the integration function (relative luciferase units/RLU) or on a Microbeta Trilux (luciferase counts per second/LCPS). Each treatment was performed in triplicate, and in multiple, separate experiments.

[3] = molecular target: T1, Human PPARα LBD fusion protein (Homo sapiens, UniProt Q07869); experiment: as above; format: cell-based
T1 construct: a.a; 167-468)
T1 sequence (Q07869 167-468): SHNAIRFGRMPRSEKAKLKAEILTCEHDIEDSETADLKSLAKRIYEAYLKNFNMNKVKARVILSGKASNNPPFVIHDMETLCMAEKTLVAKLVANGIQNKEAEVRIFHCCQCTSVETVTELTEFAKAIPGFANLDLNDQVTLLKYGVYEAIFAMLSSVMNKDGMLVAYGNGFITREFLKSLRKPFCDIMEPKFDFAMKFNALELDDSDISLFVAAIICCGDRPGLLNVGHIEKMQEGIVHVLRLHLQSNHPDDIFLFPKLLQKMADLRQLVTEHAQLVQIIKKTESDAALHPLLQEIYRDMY
Method: (§1) Cells were seeded in 24 well plates the day prior to transfection at 5×10^4−2×10^5 cells/well, depending upon cell type. Cells were transfected using Lipofectamine 2000 reagent from Invitrogen. A total of 0.8 μg DNA/well was added to 50 μL of Optimem Reduced Serum media (serum free; Gibco). Lipofectamine 2000 was added (2.5 μL/well) to another tube containing 50 μL of Optimem media. Plasmid DNA was added at a ratio of 4:3 (reporter:activator); where appropriate, salmon sperm DNA was substituted for activator expressing plasmid. The reporter plasmid used was pFR-Luc, which has the firefly luciferase gene under the control of a GAL4 UAS ([…]) containing promoter. The activator expressing plasmids contain yeast GAL4 DNA binding domain (dbd) fusion of either human PPARα ligand binding domain (LBD; a.a. 167-468) or human PPARγ LBD (a.a. 176-479). DNA constructs containing the mouse PPARα or PPARγ LBD fused to the GAL4 DNA binding domain were also used. The two solutions were incubated at room temperature for 5 min, and then combined. The combined solution was incubated at room temperature for approximately 30 min. Cells were washed once with PBS, and 100 μL of transfection mix added to each well. Plates were incubated at 37° C. in a 5% CO2 incubator for 4.5 hr, followed by aspiration of the transfection mix, with plates refed using EMEM complete media (supplemented with 10% FBS, 1× Glutamine). 24 hr post-transfection, plates were treated with the appropriate compounds in EMEM complete media, followed by washing once with PBS and addition of 100 μL 1× reporter lysis buffer/well (Promega) 24 hr after treatment. Plates went through one freeze/thaw cycle prior to analysis. Approximately 10 μL of lysate was added to 100 μL of firefly luciferase substrate, mixed by pipetting, and analyzed on a luminometer for 10 s using the integration function (relative luciferase units/RLU) or on a Microbeta Trilux (luciferase counts per second/LCPS). Each treatment was performed in triplicate, and in multiple, separate experiments.

[4] = molecular target: T2, Mouse PPARα LBD fusion protein (Mus musculus, UniProt P23204); experiment: as above; format: cell-based
T2 sequence (P23204 239-466): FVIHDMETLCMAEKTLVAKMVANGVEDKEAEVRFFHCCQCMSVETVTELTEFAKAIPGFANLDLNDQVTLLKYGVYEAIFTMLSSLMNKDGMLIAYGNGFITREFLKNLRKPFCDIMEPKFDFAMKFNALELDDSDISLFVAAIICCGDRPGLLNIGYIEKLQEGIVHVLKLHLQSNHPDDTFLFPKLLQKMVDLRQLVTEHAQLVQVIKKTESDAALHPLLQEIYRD
Method: as §1

## COc1cc(C(=O)CCC(=O)O)ccc1OCc1c(C)cccc1C [BT, 4-[[4-(2,6-Dimethylbenzyloxy)-3-methoxy]phenyl]-4-oxobutyric acid]
db/db mice; 107 mg/kg daily oral
  Glucose (% of Control): 99 ± 9 % of Control
  Glucose: 684.3 ± 63.6 mg/dL
db/db mice
  Free Fatty Acids ± SEM: 3897.7 ± 291.3 µM
  Triglycerides ± SEM: 211.5 ± 21.5 mg/dL

## Cc1cccc(C)c1COc1ccccc1 [CA, (2,6-Dimethylbenzyloxy)benzene]
[1]
  Free Fatty Acids ± SEM: 1572.2 ± 118.0
  Triglycerides ± SEM: 92.6 ± 13.7
  Glucose: 402.6 ± 61.0 mg/dL
  Glucose (% of Control): 95 ± 14.0 % of Control
  Glucose ± SEM: 402.6 ± 61.0

## COC(=O)CC(=O)c1cccc(OCc2c(C)cccc2C)c1 [CB, Methyl 3-(3-(2,6-Dimethylbenzyloxy)phenyl)-3-oxopropionate]
[1]
  Free Fatty Acids ± SEM: 2076.2 ± 169.0
  Triglycerides ± SEM: 118.8 ± 18.0
  Glucose: 494.4 ± 72.3 mg/dL
  Glucose (% of Control): 117.0 ± 17.0 % of Control
  Glucose ± SEM: 494.4 ± 72.3

## Cc1cccc(C)c1COc1cccc(C(C=O)CC(N)=O)c1 (stereo not drawn) [CC, 3-(3-(2,6,-Dimethylbenzyloxy)phenyl)-4-oxobutyramide]
[1]
  Triglycerides ± SEM: 91.6 ± 13.4
  Glucose: 444.4 ± 89.5 mg/dL
  Glucose (% of Control): 105.0 ± 21.0 % of Control
  Glucose ± SEM: 444.4 ± 89.5

## Cc1cccc(C)c1COc1cccc(C(=O)CCCC(=O)O)c1 [CD, 5-(3-(2,6-Dimethylbenzyloxy)phenyl)-5-oxopentanoic acid]
[1]
  Free Fatty Acids ± SEM: 1961.8 ± 194.2
  Triglycerides ± SEM: 119.0 ± 14.2
  Glucose: 505.6 ± 63.5 mg/dL
  Glucose (% of Control): 119.0 ± 15.0 % of Control
  Glucose ± SEM: 505.6 ± 63.5

## CC(C)OC(=O)C(C)(C)Oc1ccc(C(=O)c2ccc(Cl)cc2)cc1 [Fenofibrate, reference compound]
db/db mice; 113 mg/kg daily oral
  Glucose (% of Control): 81 ± 7 % of Control
  Glucose: 563.2 ± 49.0 mg/dL
db/db mice
  Free Fatty Acids ± SEM: 3318.5 ± 208.7 µM
  Triglycerides ± SEM: 109.3 ± 9.1 mg/dL

## CN(CCOc1ccc(CC2SC(=O)NC2=O)cc1)c1ccccn1 (stereo not drawn) [Rosiglitazone, rosiglitazone, reference compound]
[2]; Table 22b line 1 μM, rosiglitazone at one-fifth the listed concentration (0.2 μM)
  transcription activation potential (luciferase) ± standard deviation: 124 ± 33.8 LCPS
[2]; Table 22b line 3 μM, rosiglitazone at one-fifth the listed concentration
  transcription activation potential (luciferase) ± standard deviation: 134.8 ± 47.8 LCPS
[2]; Table 22b line 10 μM, rosiglitazone at one-fifth the listed concentration
  transcription activation potential (luciferase) ± standard deviation: 626.6 ± 227 LCPS
[2]; Table 22b line 30 μM, rosiglitazone at one-fifth the listed concentration
  transcription activation potential (luciferase) ± standard deviation: 887.2 ± 338.2 LCPS
[2]; Table 22b line 100 μM, rosiglitazone at one-fifth the listed concentration
  transcription activation potential (luciferase) ± standard deviation: 1034.1 ± 400.5 LCPS

## Cc1cccc(Nc2cc(Cl)nc(SCC(=O)O)n2)c1C [Wy, reference compound]
[3]; 1 μM
  transcription activation potential (luciferase) ± standard deviation: 181.8 ± 47.6 LCPS
[3]; 3 μM
  transcription activation potential (luciferase) ± standard deviation: 153.1 ± 2.8 LCPS
[3]; 10 μM
  transcription activation potential (luciferase) ± standard deviation: 315.4 ± 36.5 LCPS
[3]; 30 μM
  transcription activation potential (luciferase) ± standard deviation: 648.6 ± 47.5 LCPS
[3]; 100 μM
  transcription activation potential (luciferase) ± standard deviation: 412.23 ± 114 LCPS
[4]; 1 μM, Table 20a
  transcription activation potential (luciferase) ± standard deviation: 406.73 ± 80.11 LCPS
[4]; 3 μM, Table 20a
  transcription activation potential (luciferase) ± standard deviation: 295.8 ± 40.31 LCPS
[4]; 10 μM, Table 20a
  transcription activation potential (luciferase) ± standard deviation: 324.37 ± 11.06 LCPS
[4]; 30 μM, Table 20a
  transcription activation potential (luciferase) ± standard deviation: 414 ± 122.52 LCPS
[4]; 100 μM, Table 20a
  transcription activation potential (luciferase) ± standard deviation: 325.3 ± 91.83 LCPS
[4]; 100 μM, Table 21a
  transcription activation potential (luciferase) ± standard deviation: 55972 ± 5162 RLU
[4]; 200 μM, Table 20a
  transcription activation potential (luciferase) ± standard deviation: 115.2 ± 21.52 LCPS

## CC(C(=O)O)c1cccc(Oc2ccccc2)c1 (stereo not drawn) [fenoprofen, reference compound]
[4]; 100 μM, Table 21a
  transcription activation potential (luciferase) ± standard deviation: 4440 ± 213 RLU
